Laboratory results as given in publication PMC9312958, “A Novel and Selective Dopamine Transporter Inhibitor, (S)-MK-26, Promotes Hippocampal Synaptic Plasticity and Restores Effort-Related Motivational Dysfunctions” (Biomolecules, 2022).
“And” between values parts separate entries of the source, which are not always exact repeats. Identical values can stand only once. Like-named read-outs stand apart in the source and are kept apart here.

How the values were obtained:
[1] = test system: naive young (12 weeks) male rats; experiment: Open field, spontaneous locomotor activity; type: in vivo, rat
Method: Animals were habituated to the experimental room twenty-four hours prior to the start of the experiment. The open field consisted of a black wooden board (1.20 m × 1.20 m) surrounded by white wooden walls (50 cm in height); light was adjusted to 150 lux. Each animal was placed in the middle of the open-field arena (animal experiments conducted under BMBWF-66.009/235/V/3b/2018 regulations) and behavior was recorded for 10 min. Data analysis was performed using the AnyMaze software (Stoelting Co., IL, USA). The test consisted of one habituation session on the first day and one test session on the following day. Each animal received (S)-MK-26 at 10, 20, 0 and 1 mg/kg of body weight with wash-out period of nine days between each treatment.

[2] = test system: CA3-CA1 hippocampal synapses; experiment: Ex vivo hippocampal slice electrophysiology after i.p. treatment; type: in vivo, rat; details: 10 mg/kg i.p.
Method: All electrophysiological experiments were conducted post mortem. Hippocampal slices (n = 12 animals/group) were prepared 1 h after the pharmacological treatments (animal experiments conducted under BMBWF-66.009/235/V/3b/2018 regulations). Animals underwent a brief sedative exposure to low CO2 inhalation and were immediately afterwards euthanized using a sharp-blade guillotining (DCAP-M, World Precision Instruments, Inc., Sarasota, FL, USA). The brains were removed and transferred to an ice-cold artificial Cerebrospinal Fluid (aCSF) solution containing (in mM): 125 NaCl, 2.5 KCl, 20 NaHCO3, 2.5 CaCl2, 1 MgCl2, 25 D-glucose, 1 NaH2PO4 (pH 7.4). Hippocampi were extracted and cut transversally with a tissue chopper (McIlwain TC752, Campden Instruments LTD., Loughborough, England) to obtain 400 µm-thick slices. Before electrophysiological assays, the slices rested for at least 1 h in a submerged recovery chamber (filled with aCSF) placed in a water bath with the temperature set at 30 °C. […]
Slice recordings were carried out in a submerged chamber receiving 3–4 mL/min of carbogenated aCSF (30 ± 2 °C). Field excitatory postsynaptic potentials (fEPSPs) were recorded using glass pipettes made of pulled capillary-glass obtained from Harvard Apparatus (Harvard Apparatus, GmbH; Hugo Sachs Elektronik, Germany). Evoked fEPSPs were recorded at the CA1 stratum-radiatum layer after electrically stimulating the collateral projections of Schaffer coming from the CA3 region as previously reported. […] Basal synaptic transmission was assessed by the generation of input/output (I/O) curves, resulting from the plotting of the field slope values (output; normalized to maximum) against the presented electrical stimulus intensity (input voltage). […] LTP was determined from the temporal progression of the fEPSP slope values (decaying phase) after LTP induction, normalized to the averaged slope values obtained before LTP-induction (base line values). The data for LTP from all slices were averaged for each animal (2–5 slices per rat were measured and averaged to yield one single value per animal). […]

[3] = Plasma and brain compound levels and pharmacokinetic parameters after i.p. administration; type: in vivo, male Sprague–Dawley rats; details: rat, 10 mg/kg i.p.; for concentration at 10 h: read-out: Clast
Method: The bioavailability of (S)-MK-26 after intraperitoneal (i.p.) administration in male Sprague–Dawley rats (260–351 g) was outsourced to Evotec (Toulouse CEDEX, France, Study Number VDD10431). (S)-MK-26 at dose of 10 mg/kg of body weight was i.p. administered and blood samples and brains were collected at 0.083, 0.25, 0.5, 1, 3, 7, 10, and 24 h post-administration (3 rats per time point). Plasma and brain levels of (S)-MK-26 were measured by LC-MS by a standard validated protocol defined by the contractor, and the pharmacokinetic parameters were calculated from individual concentrations by WinNonLin7.0 (Phoenix64), a non-compartmental model.

[4] = male, Sprague-Dawley, ip, brain
[5] = male, Sprague-Dawley, ip, plasma

**Q.** Which “effect on total distance travelled over 10 min” value ([1]; 1, 10, 20 mg/kg vs vehicle) does the source give for `[O-][S@@+](Cc1cncs1)C(c1cccc(Cl)c1)c1cccc(Cl)c1` [(S)-MK-26, (S)-5-(((B(3-chlorophenyl)methyl)sulphinyl)methyl)thiazole] here?
**A.** The value was “no effect”.

**Q.** What about the “activity (distance travelled) within the initial 5 min of the test session” value ([1]; highest dose (20 mg/kg), p = 0.0236) of the same molecule?
**A.** The value was “moderately increased activity”.

**Q.** And the “stereotypic or anxiogenic behavior” value ([1]; open field, 1, 10, 20 mg/kg)?
**A.** The value was “did not induce stereotypic or anxiogenic behavior”.

**Q.** And the “basal synaptic transmission (I/O curves, fEPSP slopes)” value ([2]; old rats (~20 months), slices 1 h after injection)?
**A.** The value was “no effects”.

**Q.** What about the “Post-Tetanic Potentiation (1 min after LTP induction)” value ([2]; old rats) of the same molecule?
**A.** Its value is “comparable to those from the Koliphor/control group”.

**Q.** And the “LTP responses (25 min after LTP induction)” value ([2]; old rats, p = 0.0133)?
**A.** The value was “significant enhancement in their LTP responses”.

**Q.** What about the “detectable up to (time)” value ([3]; brain and plasma) of the same molecule?
**A.** Its value is 10 h.

**Q.** And the Tlast ([3]; brain)?
**A.** Its Tlast is 10.0 h.

**Q.** And the “time of maximum mean brain concentration” value ([3]; brain)?
**A.** The value was 15 min.

**Q.** What about the “maximum mean brain concentration” value ([3]; brain, at 15 min) of the same molecule?
**A.** The value was 634 ± 140 ng/g.

**Q.** What about the Kp ([3]; male, Sprague-Dawley, brain and plasma, ip, read-out: mean brain to plasma concentration ratio) of the same molecule?
**A.** The Kp was 1.12 ± 0.19.

**Q.** And the AUC(0-t) [3, 4]?
**A.** The AUC(0-t) was 1960 ng·h/mL and 5.14 µM·h.

**Q.** What about the Cmax [3, 4] of the same molecule?
**A.** Its Cmax is 634 ng/mL and 1.67 µM.

**Q.** What about the Tmax [3, 4] of the same molecule?
**A.** Its Tmax is 15 min.

**Q.** And the concentration at 10 h [3, 4]?
**A.** The concentration at 10 h was 19.2 nM.

**Q.** What about the AUC(0-t) [3, 5] of the same molecule?
**A.** The AUC(0-t) was 1710 ng·h/mL and 4.5 µM·h.

**Q.** And the Cmax [3, 5]?
**A.** Its Cmax is 624 ng/mL and 1.64 µM.

**Q.** What about the Tmax [3, 5] of the same molecule?
**A.** The Tmax was 30 min.

**Q.** What about the concentration at 10 h [3, 5] of the same molecule?
**A.** Its concentration at 10 h is 15.7 nM.

**Q.** And the Tlast ([3]; plasma)?
**A.** The Tlast was 10.0 h.

**Q.** What about the “time to peak mean plasma concentration” value ([3]; plasma) of the same molecule?
**A.** Its value is no more than 30 min.

**Q.** What about the “adverse effects during the pharmacokinetic study” value [3] of the same molecule?
**A.** The value was “No adverse effects were observed”.
